Consider 5 compounds from patent US20260248927A1, “TARGETED PROTEIN DEGRADATION USING BIFUNCTIONAL COMPOUNDS THAT BIND UBIQUITIN LIGASE AND TARGET MCL-1 PROTEIN” (Captor Therapeutics S.A., priority 2022, published 2026).

Molecules are shown by their SMILES. Where a name gives a salt, the structure may show the parent alone.

Series [1] deals with MV4-11 cells. Nature of the series: Cell viability assay (CellTiter-Glo), MV4-11. It counts as cell-based. The conditions noted are these: Homo sapiens, MV4-11, 24 hours, 1% FBS, read-out: Average pCC50 by molecule MV4-11 (converted). An excerpt: (§1) The effect of various compounds of the invention on the viability of MV4-11 and ARH-77 cell lines was investigated, using the CTG protocol described below.
(§2) MV4-11 cell lines are derived from acute myeloid leukaemia and it is described in the literature as a MCL-1 dependent cell line, as opposed to lymphoblast-like ARH-77 cell line, which is described as independent of MCL-1 (Tron A E et al. Nat Commun. 2018; 9: 5341; Caenepeel S et al. Cancer Discov. 2018 December; 8(12): 1582-1597).
(§3) Cells (MV4-11 or ARH-77) were seeded on […] in a growth medium with 1% FBS. Next, compound stocks were pre-diluted in DMSO and added directly to the cell culture media (final DMSO concentration: 0.5%). Compound concentrations used in this assay: 1/3 dilutions starting at 30 μM (9 to 12 points). After 24 hours of incubation, cell viability was evaluated using CellTiter-Glo Luminescent Cell Viability Assay (Promega, cat #G7572). The luminescence signal was measured using a CLARIOstar Plus Multi-Mode Microplate Reader (574-590 nm).
(§4) Results were normalized to DMSO control. Collected data were analyzed using GraphPad Prism to calculate pCC50 values.

For series [2], the target named is [MCL-1]-[compound of formula (I)]—[CRBN/DDB1] (Homo sapiens, UniProt Q07820+Q96SW2). The experiment in a line: HTRF ternary complex formation assay. In kind it is binding. The following applies: hMcl-1 and CRBN, 180 min at 25° C.; read-out: HTRF ternary complex Average pEC50 by molecule (converted). As to the method: The effect of the bifunctional compounds of the invention on the formation of a ternary complex composed of [MCL-1]-[compound of formula (I)]—[CRBN/DDB1] was investigated with HTRF ternary complex assay.
Mix of protein solution was prepared: • 48 nM hMcl-1 and 105.6 nM CRBN were prepared in PPI Europium detection buffer with 2 mM DTT. • Acceptor and donor stock solutions were diluted 100 times in PPI Europium detection buffer. Equal volumes of both reagents were mixed. Finally giving 3 nM of Streptavidin-Eu cryptate ([…]) and 6.67 nM of Anti-6×his-d2 ([…]).
5 μl of protein mix was dispensed to all wells. The tested compounds in dose-response were dispensed onto a white 384-well low volume plate (Greiner, 784075). DMSO was backfilled to all wells, resulting in a final DMSO content of 0.5%. Wells containing only DMSO served as a background. Next, 5 μl of solution with donor and acceptor was added to the wells.
The plate was sealed with transparent film and shaken using a VibroTurbulator for 60 sec at level 3. The plate was then spun down shortly (10 s, 1000 rcf) and incubated at 25° C. for 180 min.
The read-out was performed with plate reader (Pherastar, BMG Labtech) in time resolved fluorescence mode. Filterset: TR 337 665 620.
The results were analyzed as follows: • 1) an average of fluorescence for background signal was calculated and used as a negative control; • 2) raw fluorescence values for tested compounds were normalized against negative controls; • 3) bell shape curve was fitted to a gaussian distribution using a non-linear least squares Gauss-Newton algorithm; • 4) EC50 and pEC50 values were determined.

Series [3] in a line: Cell viability assay (CellTiter-Glo), ARH-77. In kind it is cell-based. The following applies: human, ARH-77 cells (lymphoblast-like, MCL-1 independent), ARH-77, 24 hours, 1% FBS, read-out: Average pCC50 by molecule ARH-77 (converted).
Description: as §1, §2, §3, §4

Chain of [MCL-1]-[compound of formula (I)]—[CRBN/DDB1] (Q07820 whole entry): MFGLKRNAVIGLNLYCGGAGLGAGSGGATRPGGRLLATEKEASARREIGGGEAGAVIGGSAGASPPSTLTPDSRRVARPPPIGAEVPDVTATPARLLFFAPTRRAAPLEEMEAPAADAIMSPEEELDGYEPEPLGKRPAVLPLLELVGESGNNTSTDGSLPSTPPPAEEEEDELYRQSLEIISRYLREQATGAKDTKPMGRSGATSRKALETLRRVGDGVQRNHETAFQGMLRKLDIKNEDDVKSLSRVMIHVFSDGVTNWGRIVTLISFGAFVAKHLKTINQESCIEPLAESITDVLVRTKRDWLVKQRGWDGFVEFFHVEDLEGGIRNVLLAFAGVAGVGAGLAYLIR
Chain of [MCL-1]-[compound of formula (I)]—[CRBN/DDB1] (Q96SW2 whole entry): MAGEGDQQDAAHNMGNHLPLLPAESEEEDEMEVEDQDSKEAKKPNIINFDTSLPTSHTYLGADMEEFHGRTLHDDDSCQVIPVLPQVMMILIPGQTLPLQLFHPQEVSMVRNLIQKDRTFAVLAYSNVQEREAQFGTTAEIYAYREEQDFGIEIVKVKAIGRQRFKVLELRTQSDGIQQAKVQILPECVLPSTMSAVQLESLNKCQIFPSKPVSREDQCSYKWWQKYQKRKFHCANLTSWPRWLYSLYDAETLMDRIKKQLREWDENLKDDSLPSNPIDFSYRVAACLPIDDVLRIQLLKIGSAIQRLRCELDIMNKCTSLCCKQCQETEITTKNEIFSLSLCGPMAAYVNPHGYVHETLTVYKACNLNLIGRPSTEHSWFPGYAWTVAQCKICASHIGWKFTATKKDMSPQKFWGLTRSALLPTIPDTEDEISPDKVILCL
Chain of [MCL-1]-[compound of formula (I)]—[CRBN/DDB1] (Q16531 whole entry partner): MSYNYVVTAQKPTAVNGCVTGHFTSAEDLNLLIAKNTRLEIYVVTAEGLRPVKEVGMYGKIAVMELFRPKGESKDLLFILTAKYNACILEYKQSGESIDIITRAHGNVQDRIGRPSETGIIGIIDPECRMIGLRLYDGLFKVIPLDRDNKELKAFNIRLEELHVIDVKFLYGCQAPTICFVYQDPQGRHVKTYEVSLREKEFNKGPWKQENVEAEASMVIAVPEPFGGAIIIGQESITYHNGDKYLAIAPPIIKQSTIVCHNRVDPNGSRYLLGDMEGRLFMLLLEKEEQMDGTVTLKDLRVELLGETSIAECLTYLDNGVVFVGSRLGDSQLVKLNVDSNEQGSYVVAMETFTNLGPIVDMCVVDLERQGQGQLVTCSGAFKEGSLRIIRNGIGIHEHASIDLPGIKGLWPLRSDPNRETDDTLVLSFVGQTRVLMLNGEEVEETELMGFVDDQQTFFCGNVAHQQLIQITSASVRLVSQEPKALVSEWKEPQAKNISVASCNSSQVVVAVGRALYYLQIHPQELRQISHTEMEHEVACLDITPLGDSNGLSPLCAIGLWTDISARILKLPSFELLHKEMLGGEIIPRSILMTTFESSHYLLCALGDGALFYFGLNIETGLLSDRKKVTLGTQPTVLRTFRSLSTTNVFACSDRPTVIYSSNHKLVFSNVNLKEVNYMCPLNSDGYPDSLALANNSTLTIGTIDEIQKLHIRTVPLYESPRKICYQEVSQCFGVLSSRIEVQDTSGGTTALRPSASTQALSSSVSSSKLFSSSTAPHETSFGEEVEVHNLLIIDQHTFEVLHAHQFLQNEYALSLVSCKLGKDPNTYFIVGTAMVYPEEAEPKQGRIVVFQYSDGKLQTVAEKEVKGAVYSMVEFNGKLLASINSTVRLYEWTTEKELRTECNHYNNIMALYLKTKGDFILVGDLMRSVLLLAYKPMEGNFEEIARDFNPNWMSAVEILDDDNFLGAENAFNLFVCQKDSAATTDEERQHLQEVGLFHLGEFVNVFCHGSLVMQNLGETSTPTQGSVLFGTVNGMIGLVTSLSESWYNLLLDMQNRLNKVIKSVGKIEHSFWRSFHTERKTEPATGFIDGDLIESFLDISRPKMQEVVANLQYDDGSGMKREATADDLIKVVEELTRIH

Take `Cc1nn(C)c(C)c1-c1c(Cl)ccc2c(CCCOc3cccc4cc(F)ccc34)c(C(=O)O)n(CCN3C(C)CN(C(=O)COc4cccc5c4CN(C4CCC(=O)NC4=O)C5=O)CC3C)c12` (stereo not drawn) [Compound 28, 6-Chloro-1-{2-[4-(2-{[2-(2,6-dioxopiperidin-3-yl)-1-oxo-2,3-dihydro-1H-isoindol-4-yl]oxy}acetyl)-2,6-dimethylpiperazin-1-yl]ethyl}-3-{3-[(6-fluoronaphthalen-1-yl)oxy]propyl}-7-(1,3,5-trimethyl-1H-pyrazol-4-yl)-1H-indole-2-carboxylic acid]: the CC50 in series [1] was below 316 nM. The EC50 in series [2] was below 100 nM. The CC50 at 24 h in series [3] was above 10000 nM.

For the compound `CCc1nn2c(c1-c1c(Cl)ccc3c(CCCOc4cccc5cc(F)ccc45)c(C(=O)O)n(CCN4CCN(C(=O)COc5cccc6c5CN(C5CCC(=O)NC5=O)C6=O)CC4)c13)COCC2` (stereo not drawn) [Compound 36, 6-Chloro-1-(2-(4-(2-((2-(2,6-dioxopiperidin-3-yl)-1-oxoisoindolin-4-yl)oxy)acetyl)piperazin-1-yl)ethyl)-7-(2-ethyl-6,7-dihydro-4H-pyrazolo[5,1-c][1,4]oxazin-3-yl)-3-(3-((6-fluoronaphthalen-1-yl)oxy)propyl)-1H-indole-2-carboxylic acid], the CC50 in series [1] is below 100 nM. In series [2], the EC50 is below 316 nM. For the same compound, the CC50 at 24 h in series [3] is above 10000 nM.

In the case of `Cc1nn(C)c(C)c1-c1c(Cl)ccc2c(CCCOc3cccc4cc(F)ccc34)c(C(=O)O)n(CCN3CCC(CN4CCN(c5cc6c(cc5F)C(=O)N(C5CCC(=O)NC5=O)C6)CC4)CC3)c12` (stereo not drawn) [Compound 144, 6-Chloro-1-(2-(4-((4-(2-(2,6-dioxopiperidin-3-yl)-6-fluoro-1-oxoisoindolin-5-yl)piperazin-1-yl)methyl)piperidin-1-yl)ethyl)-3-(3-((6-fluoronaphthalen-1-yl)oxy)propyl)-7-(1,3,5-trimethyl-1H-pyrazol-4-yl)-1H-indole-2-carboxylic acid], the CC50 in series [1] was below 100 nM. The EC50 in series [2] is below 31.6 nM. Besides, the CC50 at 24 h in series [3] is above 3160 nM.

For the compound `COCCOCCn1nc(C)c(-c2c(Cl)ccc3c(CCCOc4cccc5cc(F)ccc45)c(C(=O)O)n(CCN4CCN(C(=O)COc5cccc6c5CN(C5CCC(=O)NC5=O)C6=O)CC4)c23)c1C` (stereo not drawn) [Compound 147, 1-(2-(2-Carboxy-6-chloro-3-(3-((6-fluoronaphthalen-1-yl)oxy)propyl)-7-(1-(2-(2-methoxyethoxy)ethyl)-3,5-dimethyl-1H-pyrazol-4-yl)-1H-indol-1-yl)ethyl)-4-(2-((2-(2,6-dioxopiperidin-3-yl)-1-oxoisoindolin-4-yl)oxy)acetyl)piperazin-1-ium trifluoroacetate], in series [1], the CC50 was below 100 nM. In addition, the EC50 in series [2] was below 100 nM. In addition, the CC50 at 24 h in series [3] was above 31600 nM.

In the case of `Cc1nn(C)c(C)c1-c1c(Cl)ccc2c(CCCOc3cccc4cc(F)ccc34)c(C(=O)O)n(CCN3CCN(C(=O)c4cc5cc(C6CCC(=O)NC6=O)ccc5n4C)CC3)c12` (stereo not drawn) [Compound 148, 6-Chloro-1-(2-(4-(5-(2,6-dioxopiperidin-3-yl)-1-methyl-1H-indole-2-carbonyl)piperazin-1-yl)ethyl)-3-(3-((6-fluoronaphthalen-1-yl)oxy)propyl)-7-(1,3,5-trimethyl-1H-pyrazol-4-yl)-1H-indole-2-carboxylic acid], the CC50 in series [1] is below 316 nM. For the same compound, in series [2], the EC50 is below 31.6 nM. In addition, the CC50 at 24 h in series [3] was above 3160 nM.
